Values of other authors in patent US12357578B2, “Ibuprofen and famotidine tablet” (APPCO PHARMA LLC, priority 2020, dated 2025).

Solubility in ethanol (in words) (ethanol)	Solubility in glacial acetic acid (in words) (glacial acetic acid)	Solubility in methanol (in words) (methanol)	Solubility in water (in words) (water)	Solubility in organic solvents (in words) (organic solvents such as ethanol and acetone)	Solubility in water (water)	Compound
practically insoluble	freely soluble	slightly soluble	very slightly soluble	–	–	NC(N)=Nc1nc(CSCCC(N)=NS(N)(=O)=O)cs1 [Famotidine]
–	–	–	very slightly soluble	readily soluble	< 1000 µg/mL	CC(C)Cc1ccc(C(C)C(=O)O)cc1 (racemic) [Ibuprofen, (±)-2-(p-isobutylphenyl) propionic acid]
